# Reference: US11478476B2 (CONTERA PHARMA APS, priority 2014, dated 2022)
# Legend:
# [1] = system: L-DOPA induced dyskinesia (LID) model rats; assay: L-DOPA induced AIMs in 6-OHDA lesioned LID model rats; assay type: in vivo, rat
# From the text: Animals: 80 experimentally-naïve, male, 9 weeks old Sprague-Dawley rats at body weight of 200 to 250 g arrive at the laboratory at least 1 week prior to behavioural testing. Rats were housed in groups of n=2/cage. Animals had ad libitum access to standard rodent chow and water. Animal housing and testing rooms were maintained under controlled environmental conditions and were within close proximity of each other. Animal housing rooms were on a 12-hour light-dark cycle with lights on at 6:00 AM and maintained at 70° F./21° C. (range: 68-72° F./20-22° C.) with a humidity range of 20-40%. Testing rooms were maintained at 68-72° F. with a humidity range of 20-40%. DA (dopamine)-denervating lesions were performed by unilateral injection of 6-OHDA in the ascending nigrostriatal pathway. Rats were anesthetized with pentobarbital sodium 40 mg/kg (i.p.) and positioned in a stereotactic frame. 6-OHDA was injected into the right ascending DA bundle at the following coordinates relative to bregma and dural surface: A (anterior-posterior), L (lateral), V (dorsoventral): A −1.8, L −2.0, V −8.6, tooth bar 0.0.
# The neurotoxin injections were performed at a rate of 1 ul/min, and the injection cannula is left in place for an additional 2-3 min thereafter. Two weeks after surgery, contralateral full body turns were recorded over 30 min, following s.c. injection of 0.5 mg/kg of apomorphine sulfate. The animals were placed in plastic Perspex bowls (30 cm in diameter) and the rotational behavior (360° turns) is recorded by an automated rotometer for […] after the s.c. injection of 0.5 mg/kg of apomorphine sulfate. Apomorphine (0.5 mg/kg, s.c.) induced contralateral rotation in unilateral 6-OHDA lesioned rats. 73 rats with rotations ≥180/30 min, indicating >90% DA lesion in nigrostriatal pathway, were chosen as the PD model rats for chronic L-DOPA treatment.
# Starting one day after the apomorphine-induced rotation test, 6-OHDA-lesioned rats were treated with daily L-DOPA (Sigma-Aldrich, Germany) (8 mg/kg plus benserazide 15 mg/kg, s.c.) for 21 days. Rats were placed individually in transparent plastic cages without bedding material and scored every 20 min following the injection of L-DOPA for the entire time course of dyskinesias (120 min). The AIMs were classified into four subtypes according to their topographic distributions such as Locomotive, Forelimb, Axial and Orolingual behaviors. The severity of each AIM subtype was assessed by using scores from 0 to 4 (1: occasional, i.e. present less than 50% of the time; 2: frequent, i.e. present more than 50% of the time; 3: continuous, but interrupted by strong sensory stimuli; 4: continuous, not interrupted by strong sensory stimuli). In this study, rats with an AIMs≥28 were considered highly dyskinetic, while rats with an AIMs<28 either low or none-dyskinetic.
# After chronic L-DOPA treatment on PD rats for 21 days, 42 LID model rats (348 g˜501 g, 15 weeks old) were successfully created with the criteria of total AIM scores (Lo+Li+AX+OI)≥28 points.
# AIMs ratings were performed by an investigator who was kept unaware of the pharmacological treatment administered to each rat (experimentally blinded). In order to quantify the severity of the AIMs, rats were observed individually in their standard cages every 20th minute at 20-180 min after an injection of I-DOPA. The AIM's were classified into four subtypes:
# Each of the four subtypes are scored on a severity scale from 0 to 4, where 0=absent, 1=present during less than half of the observation time, 2=present for more than half of the observation time, 3=present all the time but suppressible by external stimuli, and 4=present all the time and not suppressible by external stimuli. Axial, limb and orolingual AIMs are found to be modulated in a similar way by all the tested substances.
# Rats were tested for AIMs using the sum of locomotive (LO) oraxial (AX), limb (LI), and orolingual (OL) AIM scores per testing session for statistical analyses. […]
# [2] = target: T1, human recombinant dopamine D3 receptor (Homo sapiens, UniProt P35462); settings: read-out: D3 affinity Ki ± SEM; cited from earlier work
# [3] = target: T2, human recombinant dopamine D4 receptor (Homo sapiens, UniProt P21917); settings: read-out: D4 affinity Ki ± SEM; cited from earlier work
# T2 sequence (P21917 1-419): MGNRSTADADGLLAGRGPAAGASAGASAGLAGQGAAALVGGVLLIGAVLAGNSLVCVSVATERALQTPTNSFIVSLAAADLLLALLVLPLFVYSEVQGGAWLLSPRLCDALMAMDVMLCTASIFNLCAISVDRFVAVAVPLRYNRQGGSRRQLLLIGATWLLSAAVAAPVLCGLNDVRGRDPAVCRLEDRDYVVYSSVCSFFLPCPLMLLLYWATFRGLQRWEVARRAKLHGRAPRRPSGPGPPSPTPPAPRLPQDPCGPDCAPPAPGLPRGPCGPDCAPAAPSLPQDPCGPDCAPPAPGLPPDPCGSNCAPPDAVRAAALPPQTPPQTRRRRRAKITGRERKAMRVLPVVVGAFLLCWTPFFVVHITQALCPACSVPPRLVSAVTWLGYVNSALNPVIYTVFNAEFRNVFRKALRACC
# [4] = target: T1, human recombinant dopamine D3 receptor; settings: saturating concentrations of dopamine; read-out: D3 efficacy IC50 ± SEM; cited from earlier work
# [5] = target: T2, human recombinant dopamine D4 receptor; settings: saturating concentrations of dopamine; read-out: D4 efficacy IC50 ± SEM; cited from earlier work
# [6] = oral administration of buspirone, human volunteers; analyte = label (6-OH-Busp: total, both enantiomers); cited from earlier work
# [7] = after administration of radiolabeled buspirone; cited from earlier work
# [8] = cited from earlier work
# [9] = system: dopamine D3 receptors; settings: oral buspirone at therapeutically relevant doses; cited from earlier work
# [10] = system: D2 receptors; settings: oral buspirone; cited from earlier work
# [11] = system: Parkinson's disease patients; settings: cited from earlier work
# [12] = target: T3, human recombinant 5-HT1A receptors (Homo sapiens, UniProt P08908); settings: cited from earlier work; for Ki: nM printed, table head has no unit
# T3 sequence (P08908 1-422): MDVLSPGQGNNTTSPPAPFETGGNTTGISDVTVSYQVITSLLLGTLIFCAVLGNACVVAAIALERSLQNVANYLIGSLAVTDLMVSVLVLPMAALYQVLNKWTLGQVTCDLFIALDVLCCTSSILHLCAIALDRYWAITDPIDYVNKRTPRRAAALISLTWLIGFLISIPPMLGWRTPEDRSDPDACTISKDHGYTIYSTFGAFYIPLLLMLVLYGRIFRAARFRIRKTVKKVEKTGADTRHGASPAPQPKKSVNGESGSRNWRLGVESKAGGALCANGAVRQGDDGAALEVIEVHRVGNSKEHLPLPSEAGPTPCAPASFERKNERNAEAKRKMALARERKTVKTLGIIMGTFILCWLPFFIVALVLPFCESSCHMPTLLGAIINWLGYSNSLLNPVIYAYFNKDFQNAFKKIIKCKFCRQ
# [13] = system: PD model rats; assay: Stepping test (adjusting steps) in PD model rats; assay type: in vivo, rat; settings: 10 mg/kg, sc; PD model rats
# Procedure: The stepping test (Schallert et al., 1992) was performed as described by Kirik et al., 2001 with little modifications. Briefly, the rat was held by the experimenter fixing its hindlimbs with one hand and the forelimb not to be monitored with the other, while the unrestrained forepaw was touching the table. The number of adjusting steps was counted, while the rat was moved sideways along the table surface (90 cm in 5 s), in the forehand and backhand direction, for both forelimbs, and the average of the steps in the two directions is considered.
# 30 male PD model rats were used for adjusting steps test with the following groups: • 1. Vehicle 1+Vehicle 2 (n=7) • 2. Vehicle 1+L-DOPA (10 mg/kg, sc) (n=7) • 3. 6-OH-Busp (3 mg/kg, sc)+Vehicle 2 (n=8) • 4. 6-OH-Busp (3 mg/kg, sc)+L-DOPA (10 mg/kg, sc)
# The PD rats were handled for 3 consecutive days. Vehicle 1 or 6-OH-Busp will s.c. dosed 61 min before adjusting steps test. Vehicle 2 or L-DOPA/Benserazide dosed 60 min before adjusting steps test. On testing day, the rats were held by both hind limbs and the untested forepaw. The test forepaw was placed on a flat surface and dragged in the forehand direction for 90 cm distance over 5 s. The number of adjusting steps was counted for both paws in the backhand and forehand directions of movement. […] Data were analyzed and graphed by Graph Pad Prism 6.
# [14] = target: T4, human recombinant dopamine D2 receptor (Homo sapiens, UniProt P14416); settings: read-out: D2 affinity Ki ± SEM; cited from earlier work
# [15] = target: T4, human recombinant dopamine D2 receptor; settings: saturating concentrations of dopamine; read-out: D2 efficacy IC50 ± SEM; cited from earlier work
# T1 sequence (P35462 whole entry): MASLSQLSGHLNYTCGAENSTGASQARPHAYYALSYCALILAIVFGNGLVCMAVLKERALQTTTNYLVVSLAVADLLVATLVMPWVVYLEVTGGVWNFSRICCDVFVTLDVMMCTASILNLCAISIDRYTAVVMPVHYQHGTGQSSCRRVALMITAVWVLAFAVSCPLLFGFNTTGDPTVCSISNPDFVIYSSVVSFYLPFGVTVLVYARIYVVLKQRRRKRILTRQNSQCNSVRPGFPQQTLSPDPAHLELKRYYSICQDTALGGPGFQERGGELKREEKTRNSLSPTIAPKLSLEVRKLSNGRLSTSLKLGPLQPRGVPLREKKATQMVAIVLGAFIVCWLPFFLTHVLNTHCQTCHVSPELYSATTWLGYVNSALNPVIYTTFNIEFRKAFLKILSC
# T4 sequence (P14416 whole entry): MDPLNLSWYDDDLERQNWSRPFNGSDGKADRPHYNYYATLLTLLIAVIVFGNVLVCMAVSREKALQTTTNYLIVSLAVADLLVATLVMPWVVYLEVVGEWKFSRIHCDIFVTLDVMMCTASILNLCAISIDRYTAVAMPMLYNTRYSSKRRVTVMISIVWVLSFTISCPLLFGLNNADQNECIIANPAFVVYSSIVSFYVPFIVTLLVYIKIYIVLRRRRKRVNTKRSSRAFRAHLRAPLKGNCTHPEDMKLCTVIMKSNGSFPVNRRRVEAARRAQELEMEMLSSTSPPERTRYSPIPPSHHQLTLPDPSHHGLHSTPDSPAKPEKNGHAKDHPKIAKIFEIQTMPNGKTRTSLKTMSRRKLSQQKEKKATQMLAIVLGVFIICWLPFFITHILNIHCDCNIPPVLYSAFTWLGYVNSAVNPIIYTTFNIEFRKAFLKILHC
compound,measurement,setting,value
"O=C1CC2(CCCC2)CC(=O)N1CCCCN1CCN(c2ncccn2)CC1 [Buspirone, 8-[4-(4-pyrimidin-2-ylpiperazin-1-yl)butyl]-8-azaspiro[4.5]decane-7,9-dione, reference compound]",total AIMs of LID rats at time points,"[1]; Example XII, 1 mg/kg s.c., 50, 70, 90, 110, 130, 150, 170 and 190 min, vs vehicle",significantly attenuated
same,AUC of total AIMs from 10 min to 190 min,"[1]; Example XII, buspirone 1 mg/kg s.c., 6-OH-Busp 0.3, 1 and 3 mg/kg s.c., vs vehicle",decreased
same,Ki,[2],98 ± 16 nM
same,Ki,[3],29.2 ± 11.3 nM
same,IC50,[4],440 ± 180 nM
same,IC50,[5],350 ± 60 nM
same,AUC0-INF,[6],3.93 ngxh/ml
same,Cmax,[6],1.39 ng/mL
same,unchanged buspirone as share of total radioactivity in human plasma,[7],less than 2%
same,plasma half-life,[8]; rats,54 ± 24 min
same,in vivo blockade of dopamine D3 receptors (PET),[9],blocks
same,in vivo blockade of D2 receptors (PET),[10],did not cause blockade
same,disability ratings,[11]; 100 mg/day,significant worsening
same,dyskinesia,[11]; 100 mg/day,reduced
same,effects on Parkinson's disease or dyskinesia,[11]; 10-60 mg/day,did not have any effects
O=C1CC2(CCC(O)C2)CC(=O)N1CCCCN1CCN(c2ncccn2)CC1 (stereo not drawn) [3-OH-Busp],IC50,[12],652 nM
same,Ki,[12],326 nM
"N[C@@H](Cc1ccc(O)c(O)c1)C(=O)O [L-DOPA, 3,4-dihydroxyphenylalanine, reference compound]",number of adjusting steps,[13],increased
"CN1CC(=O)N=C1NC(=O)Nc1cccc(Cl)c1 [Fenobam, 1-(3-chlorophenyl)-3-(3-methyl-5-oxo-4H-imidazol-2-yl)urea, reference compound]",AIMs of LID rats at any time points,"[1]; Example XIV, 30 mg/kg, s.c. as printed",did not have significant effects
"CN(C)CCc1c[nH]c2ccc(C[C@H]3COC(=O)N3)cc12 [Zolmitriptan, (S)-4-({3-[2-(dimethylamino)ethyl]-1H-indol-5-yl}methyl)-1,3-oxazolidin-2-one, reference compound]",AIMs at any time points,"[1]; Example XIII, 10 mg/kg s.c.",did not have any effects
"c1cnc(N2CCNCC2)nc1 [1-PP, 1-(2-pyrimidinyl)-piperazine]",IC50,[12],> 1000 nM
same,exposure (area under the concentration-time profile) of metabolite relative to parent compound,[8]; oral dosing of buspirone in rats,49 fold
O=C1CC2(CCCC2)CC(=O)N1CCCCN1CCN(c2ncc(O)cn2)CC1 [5-OH-Busp],IC50,[12],928 nM
same,Ki,[12],464 nM
same,Ki,[14],4010 ± 792 nM
same,Ki,[2],261 ± 46 nM
same,Ki,[3],107 ± 44.8 nM
same,IC50,[15],2600 ± 1300 nM
same,IC50,[4],930 ± 460 nM
same,IC50,[5],1400 ± 820 nM
